Data from patent publication US8835631B2, “Therapeutic agent for cerebral infarction” (Mitsubishi Tanabe Pharma Corporation, priority 2007, dated 2014).

Tested on: rat middle cerebral artery occlusion-reperfusion model
Test: Cerebral infarction volume in rat middle cerebral artery occlusion-reperfusion model
Assay type: in vivo, male Wistar rats
Conditions: 10 mg/kg intravenously 30 min after occlusion, reperfusion 90 min after occlusion, brain isolated 24 hr later, TTC stain; FIG. 7
Method: The middle cerebral artery of male Wistar rats (Japan Laboratory Animals Inc.) was obstructed with suture (silicon-coated nylon thread), and saline (Vehicle, n=7), test compound A (10 mg/kg, n=6) dissolved in saline, test compound B ([…], n=7) dissolved in saline, and test compound C (10 mg/kg, n=7) dissolved in saline were each intravenously administered in 30 min after occlusion and the artery was reperfused in 90 min after occlusion. The brain was isolated 24 hr later. A 2 mm brain strip was prepared, and the strip was stained with PBS (pH 7.4, 37° C.) containing 1% 2,3,5-triphenyltetrazolium chloride (TTC, Wako Pure Chemical Industries, Ltd.). The cerebral infarction area was measured by image analysis and the cerebral infarction volume was calculated.

Structure (SMILES): CC(=O)NC1(c2ccc(CN3CCN(c4ncccn4)CC3)cc2)CC1.Cl [test compound A, N-(1-(4-((4-(pyrimidin-2-yl)piperazin-1-yl)methyl)phenyl)cyclopropyl)acetamide•hydrochloride]
- suppression of cerebral infarction volume: 42.5%
